Test results published in ChEMBL document CHEMBL1201862, “PubChem BioAssay data set” (2004).
Active and inactive are the calls of the source.

Legend:
Caspase-6 = target: T1, Caspase-6 (Homo sapiens, UniProt P55212); assay: inhibition of CASP6 peptide cleavage – biochemical, VEID-R110 fluorescence, cherry-pick, dose response (AID 720632)
T1 sequence (P55212 whole entry): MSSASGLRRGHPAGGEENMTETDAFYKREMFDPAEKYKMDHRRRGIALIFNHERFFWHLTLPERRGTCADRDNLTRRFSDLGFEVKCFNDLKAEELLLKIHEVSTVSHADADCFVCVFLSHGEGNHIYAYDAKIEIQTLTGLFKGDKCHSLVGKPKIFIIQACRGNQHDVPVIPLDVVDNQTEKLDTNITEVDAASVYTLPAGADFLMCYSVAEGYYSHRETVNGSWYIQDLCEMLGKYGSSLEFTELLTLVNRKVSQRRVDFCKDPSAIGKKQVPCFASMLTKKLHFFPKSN

[1] = target: Bifunctional protein GlmU (Mycobacterium tuberculosis, UniProt P9WMN3); assay: Inhibitors of Mycobacterial Glucosamine-1-phosphate acetyl transferase (GlmU). Secondary screen.; parameters: species or system Mycobacterium tuberculosis H37Rv
[2] = target: T2, Histone-lysine N-methyltransferase NSD2 (Homo sapiens, UniProt O96028); format: biochemical
T2 sequence (O96028 whole entry): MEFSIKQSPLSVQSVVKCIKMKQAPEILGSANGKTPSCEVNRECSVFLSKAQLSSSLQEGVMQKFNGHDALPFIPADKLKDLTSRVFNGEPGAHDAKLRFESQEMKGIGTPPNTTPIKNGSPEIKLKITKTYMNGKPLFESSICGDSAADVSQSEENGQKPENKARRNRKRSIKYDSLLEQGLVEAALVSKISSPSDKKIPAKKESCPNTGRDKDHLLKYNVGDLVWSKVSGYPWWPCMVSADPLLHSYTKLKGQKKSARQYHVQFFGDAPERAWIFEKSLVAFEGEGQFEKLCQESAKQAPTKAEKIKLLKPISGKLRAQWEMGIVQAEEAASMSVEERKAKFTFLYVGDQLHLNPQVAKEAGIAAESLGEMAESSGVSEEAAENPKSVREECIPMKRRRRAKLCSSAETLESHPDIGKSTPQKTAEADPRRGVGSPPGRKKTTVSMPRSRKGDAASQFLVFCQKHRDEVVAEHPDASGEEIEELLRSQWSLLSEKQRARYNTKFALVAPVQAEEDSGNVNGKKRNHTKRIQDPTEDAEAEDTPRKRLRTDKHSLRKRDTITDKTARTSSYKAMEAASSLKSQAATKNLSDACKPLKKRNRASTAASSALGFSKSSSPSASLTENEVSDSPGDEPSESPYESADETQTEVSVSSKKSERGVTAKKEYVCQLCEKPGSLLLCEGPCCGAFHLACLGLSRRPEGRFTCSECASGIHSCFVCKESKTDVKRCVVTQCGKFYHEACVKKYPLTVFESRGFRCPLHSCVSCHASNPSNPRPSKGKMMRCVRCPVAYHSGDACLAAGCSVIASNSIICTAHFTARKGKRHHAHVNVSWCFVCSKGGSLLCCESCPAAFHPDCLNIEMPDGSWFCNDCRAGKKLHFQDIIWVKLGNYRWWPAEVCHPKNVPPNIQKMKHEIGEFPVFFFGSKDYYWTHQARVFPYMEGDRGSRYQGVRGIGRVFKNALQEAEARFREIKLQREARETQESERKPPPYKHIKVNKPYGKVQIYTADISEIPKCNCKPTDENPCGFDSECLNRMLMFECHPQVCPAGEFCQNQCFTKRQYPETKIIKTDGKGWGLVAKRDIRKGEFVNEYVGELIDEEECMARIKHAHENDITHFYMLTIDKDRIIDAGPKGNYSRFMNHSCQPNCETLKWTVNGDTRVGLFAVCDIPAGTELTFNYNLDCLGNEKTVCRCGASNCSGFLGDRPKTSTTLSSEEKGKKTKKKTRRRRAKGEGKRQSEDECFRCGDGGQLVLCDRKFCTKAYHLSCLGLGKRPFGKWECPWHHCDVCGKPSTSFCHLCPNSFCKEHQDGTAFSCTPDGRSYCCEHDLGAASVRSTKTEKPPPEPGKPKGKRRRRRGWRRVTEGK

Large T antigen = Large T antigen (Simian virus 40, UniProt P03070); format: functional, Betapolyomavirus macacae;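 note: Confirmatory-stage PubChem screen for compounds that inhibit SV40 T antigen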
[3] = M. tuberculosis growth inhibition, HTS (AID 449762); format: functional
[4] = microbe, parasite or virus in culture; format: functional; conditions: Mycobacterium tuberculosis
[5] = target: DNA damage-inducible transcript 3 protein (Mus musculus, UniProt P35639); format: functional, Cricetulus griseus
[6] = target: T3, Tyrosine-protein phosphatase non-receptor type 7 (Homo sapiens, UniProt P35236); assay: HePTP tyrosine phosphatase activity blockers – biochemical, absorbance, leukemia target, primary screen (AID 521); format: functional
T3 sequence (P35236 whole entry): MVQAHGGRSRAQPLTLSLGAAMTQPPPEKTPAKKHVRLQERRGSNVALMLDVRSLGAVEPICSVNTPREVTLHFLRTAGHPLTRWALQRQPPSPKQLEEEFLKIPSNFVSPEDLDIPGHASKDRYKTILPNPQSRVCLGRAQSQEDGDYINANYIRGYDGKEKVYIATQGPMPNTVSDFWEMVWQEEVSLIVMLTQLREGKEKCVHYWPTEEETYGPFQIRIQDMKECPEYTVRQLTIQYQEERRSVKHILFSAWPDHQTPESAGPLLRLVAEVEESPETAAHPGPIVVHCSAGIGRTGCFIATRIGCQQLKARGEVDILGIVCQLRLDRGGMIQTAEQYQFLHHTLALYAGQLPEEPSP

[7] = target: T4, Low molecular weight phosphotyrosine protein phosphatase (Homo sapiens, UniProt P24666); assay: inhibition of human LMPTP enzyme activity – biochemical, absorbance, pNPP substrate, LMPTP-A isoform, set 2, orthogonal assay, dose response (AID 743308); format: functional
T4 sequence (P24666 whole entry): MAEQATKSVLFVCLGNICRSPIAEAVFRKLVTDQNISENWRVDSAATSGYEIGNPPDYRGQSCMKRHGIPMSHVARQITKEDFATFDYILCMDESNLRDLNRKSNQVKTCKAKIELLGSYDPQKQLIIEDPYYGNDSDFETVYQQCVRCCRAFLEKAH

[8] = target: T4, Low molecular weight phosphotyrosine protein phosphatase; assay: inhibition of LMPTP-A enzymatic activity – biochemical, OMFP substrate, fluorescence intensity, set 2, dose response (AID 743307); format: functional
[9] = target: FAD-linked sulfhydryl oxidase ALR (Homo sapiens, UniProt P55789); assay: ALR-catalysed DTT oxidation blockers – biochemical, H2O2 detection, luminescence, cherry-pick, dose response (AID 493248)
[10] = target: Heat shock protein HSP 90-alpha (Homo sapiens, UniProt P07900); assay: Luminescence-based dose response biochemical high throughput screening assay for inhibitors of the Heat Shock Protein 90 (HSP90). [Related pubchem assays: 1831 (Summary AID.), 1846 (Confirmation screen.), 1789 (Primary screen.)]
[11] = CCR5-tropic HIV-1 fusion blockers – cell-based, CCR5-tropic Env, dose response (AID 2279); format: functional

Sequence of Bifunctional protein GlmU (P9WMN3 whole entry): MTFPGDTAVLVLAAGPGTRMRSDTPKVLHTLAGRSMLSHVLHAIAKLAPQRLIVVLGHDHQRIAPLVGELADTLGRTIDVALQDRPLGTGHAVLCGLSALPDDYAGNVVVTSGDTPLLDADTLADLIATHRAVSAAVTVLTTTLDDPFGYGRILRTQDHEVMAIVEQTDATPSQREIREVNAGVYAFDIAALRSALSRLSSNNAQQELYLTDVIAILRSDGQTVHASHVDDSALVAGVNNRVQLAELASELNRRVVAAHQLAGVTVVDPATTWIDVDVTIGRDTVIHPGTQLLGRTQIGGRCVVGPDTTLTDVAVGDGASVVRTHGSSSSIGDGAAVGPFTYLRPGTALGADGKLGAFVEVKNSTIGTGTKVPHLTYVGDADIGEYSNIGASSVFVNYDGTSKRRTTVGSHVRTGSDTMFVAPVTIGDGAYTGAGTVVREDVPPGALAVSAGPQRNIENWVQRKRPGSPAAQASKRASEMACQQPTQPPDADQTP
Sequence of Large T antigen (P03070 whole entry): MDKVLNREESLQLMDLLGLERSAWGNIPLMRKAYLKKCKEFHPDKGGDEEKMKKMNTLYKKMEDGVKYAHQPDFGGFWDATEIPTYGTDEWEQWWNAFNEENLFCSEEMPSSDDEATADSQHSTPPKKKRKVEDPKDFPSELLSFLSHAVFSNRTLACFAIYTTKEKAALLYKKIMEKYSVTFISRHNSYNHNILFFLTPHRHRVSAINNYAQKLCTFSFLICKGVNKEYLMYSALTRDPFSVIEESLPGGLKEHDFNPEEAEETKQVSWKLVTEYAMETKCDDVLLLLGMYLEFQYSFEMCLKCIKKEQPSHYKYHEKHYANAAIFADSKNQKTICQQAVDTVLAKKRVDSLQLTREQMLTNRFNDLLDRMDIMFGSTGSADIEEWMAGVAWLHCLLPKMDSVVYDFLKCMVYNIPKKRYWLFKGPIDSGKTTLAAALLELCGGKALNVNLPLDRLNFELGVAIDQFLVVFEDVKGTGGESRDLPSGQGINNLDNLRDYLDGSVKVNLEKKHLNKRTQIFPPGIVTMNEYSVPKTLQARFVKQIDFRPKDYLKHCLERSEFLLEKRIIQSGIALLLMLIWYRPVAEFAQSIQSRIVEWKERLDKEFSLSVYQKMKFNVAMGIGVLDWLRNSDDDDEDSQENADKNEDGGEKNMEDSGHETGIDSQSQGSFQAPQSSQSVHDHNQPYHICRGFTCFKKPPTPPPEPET
Sequence of FAD-linked sulfhydryl oxidase ALR (P55789 whole entry): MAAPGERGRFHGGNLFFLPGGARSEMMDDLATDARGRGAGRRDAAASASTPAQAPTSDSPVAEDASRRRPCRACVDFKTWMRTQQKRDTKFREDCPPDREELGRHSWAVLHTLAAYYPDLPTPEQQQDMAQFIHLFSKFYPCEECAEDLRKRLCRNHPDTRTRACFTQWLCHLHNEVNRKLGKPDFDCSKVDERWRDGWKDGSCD
Sequence of DNA damage-inducible transcript 3 protein (P35639 whole entry): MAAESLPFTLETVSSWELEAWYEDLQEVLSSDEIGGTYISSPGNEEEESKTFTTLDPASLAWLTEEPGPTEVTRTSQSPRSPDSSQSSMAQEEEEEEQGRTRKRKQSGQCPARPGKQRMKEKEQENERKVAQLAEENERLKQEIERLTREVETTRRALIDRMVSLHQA

## Cc1c(Br)c(=O)oc2c(Br)c(O)c(O)cc12
Caspase-6
  AC50: 19.5 µM (active)
[1]
  IC50: 55.4 µM (active)
[2]
  AC50: 10.3 µM (active)
Large T antigen
  IC50: 41.2 µM (active)

## CCOc1ccc(/C=C/C2=Cc3c(sc(NC(=O)CSc4n[nH]c(N)n4)c3C#N)C(C)(C)C2)cc1
[3]
  IC50: > 100 µM (active)
[4]
  CC50: 8.74 µM (active)
[5]
  Absolute IC50 (CHOP): < 10 µM

## CCOC(=O)COc1ccc(C2NC(C(=O)O)CS2)cc1 (stereo not drawn)
[6]
  IC50: > 100 µM (not active)

## c1ccc(-c2nc(NCCCN3CCOCC3)c3ccccc3n2)cc1
[7]
  IC50: 48.8 µM (inactive)
[8]
  IC50: 22.5 µM (inactive)

## COc1cc(/C=N/Nc2ccc(Cl)c(C(=O)O)c2)ccc1OC(=O)c1ccccc1F
[9]
  AC50: 5.62 µM (active)
[10]
  IC50: 1.06 µM (active)
[11]
  IC50: 4.45 µM (active)
